From paper PMC13168289, “Potent acridone antimalarial against all three life stages of Plasmodium” (Nature Communications, 2026) come the findings set out here.

Data set [1] is described as follows: in vivo pharmacokinetics, single oral dose. The following applies: 40 mg/kg oral. Also on record: species or system ICR-CD1 mice. As to the method: PK studies were conducted using well-established methods[21],[31],[50]. Four to five weeks old male and female outbred ICR-CD1 mice (Charles River Laboratories. Inc. Raleigh, NC) weighing 23–35 g were used for PK studies. Animals were assigned unique study numbers via ear tags and cage cards and were randomly assigned to treatment or control groups (n = 3 per group) using a weigh-stratified randomization procedure. All animals were quarantined and acclimatized for 7 days prior to study initiation and were housed in a 12:12 light/dark cycle with food and water provided ad libitum. […] At each time point, a terminal whole blood sample was collected by cardiac puncture using heparinized syringes (Heparin, Hospira, Lake Forest, IL), while mice were under anesthesia in accordance with the approved IACUC protocol. Following the separation of appropriate aliquots, plasma was obtained from the whole blood via centrifugation at 16,200 rpm for 10 min at 4 °C. Mice were humanely euthanized as described in the protocol, after which the liver samples were also collected and weighed at each experimental time point. All tissue samples were immediately preserved on dry ice and later stored at −80 °C until analytical work was performed. Drug concentrations were determined for each sample taken from animals dosed with the test compound. PK parameters such as time to maximum plasma concentration (Tmax), maximum plasma concentration (Cmax), the apparent elimination half-life (t1/2), area under the curve (AUC), etc., were obtained using noncompartmental analysis via the Phoenix WinNonlin software package (version 6.4; Pharsight Corp., Mountain View, CA).

A further data set concerns blood-stage P. yoelii. The experiment in a line: single-dose cure murine model, oral. The format is in vivo, P. yoelii in CF1 mice. An excerpt:
Animals were housed at the VAPORHCS in Thoren Maxi-Miser microisolator cages (78 sq. in. floor space) with a maximum density of five females or four males per cage. Cages were maintained on a 12-h light/dark cycle and provided with autoclaved nesting materials (nestlets) for environmental enrichment. All mice had ad libitum access to food and water. Four- to five-week-old female and male outbred CF1 mice (Charles River Laboratories, Raleigh, NC, USA) were randomly assigned to treatment and control groups using a simple randomization procedure (e.g., computer-generated random numbers) to ensure balanced distribution of baseline body weights and starting parasitemia levels across all cohorts. Groups of four mice (n = 4, mean body weight of each group was ~30 g) were infected intravenously with 3.5 × 10^4 P. yoelii (Kenya strain, MRA-428) from a donor animal. Drug administration commenced the day after the animals were inoculated (Day 1). The test drug or the drug combination was dissolved in PEG-400 and administered by oral gavage once daily for 4 successive days in the 4-day suppression model, but only once on Day 1 in the single-dose cure model. Blood was collected via the tail vein with the aid of a syringe needle on Day 5 and then at weekly intervals through Day 28. Blood films were Giemsa-stained and examined microscopically to determine the level of parasitemia. All mice were observed daily to assess clinical signs. Animals with observable parasitemia following the experiments were euthanized; animals cleared of parasitemia from their bloodstream were observed daily with assessment of parasitemia performed weekly until Day 28, at which point, the animal(s) were scored as cured of the infection and then humanely euthanized. All treated mice with a negative smear on Day 28 were considered cured (100% protection). […]

Data set [2] is described as follows: host hepatocyte viability in the P. cynomolgi assay. The format is cell-based, rhesus. The following applies: rhesus monkey; radical cure mode; read-out: cytotoxicity CC50. As to the method: The liver-stage P. cynomolgi assay was designed to identify anti-hypnozoite drugs utilizing a 384-well in vitro culture system[31],[37]. Briefly, cryopreserved primary simian hepatocytes (donor lots XGB, OQB, and QHO: BioIVT, Inc.) were seeded in collagen-coated 384-well plates and infected with P. cynomolgi bastianellii (B strain) sporozoites dissected from infected Anopheles dirus mosquitoes. Test compounds were solubilized in 100% DMSO and serially diluted 2-fold to generate up to a 12-point dose-response curve, maintaining a final DMSO concentration of 0.1% across all wells. Two distinct treatment modes were evaluated. For the prophylactic assay, to assess the prevention of infection, compound exposure began 1-hour post-infection with daily media changes on Days 1 and 2. For the radical cure assay, to assess activity against established liver forms, drugs were administered daily from Day 4 through Day 7 post-infection. […] For readout on Day 8, plates were fixed and stained via immunofluorescence to visualize parasite forms (hypnozoites and schizonts) and hepatocyte nuclei, and images were acquired using an Operetta CLS high-content imaging system (PerkinElmer). Host hepatocyte viability was measured in parallel to determine compound toxicity. Parasite forms were automatically quantified using Harmony 4.9 software, and percent inhibition and toxicity were calculated relative to in-plate DMSO vehicle controls. IC50 and CC50 (half-maximal cytotoxic concentrations) were determined by fitting dose-response data to a four-parameter logistic (variable slope) model using a custom Python script incorporating a grid search algorithm.

Where “and” joins values, the source holds several entries; their conditions need not be identical. Equal entries are not always repeated.

In general, Cmax refers to the maximum level reached in the sampled fluid or tissue. One may read the Tmax as the time from dosing to the highest level. As for `O=c1c2ccc(Oc3ccc(OC(F)(F)F)cc3)cc2[nH]c2cc(Cl)cc(F)c12` [T111], the AUCinf in data set [1] (female, liver) is 23,495 ng.h/mL; in data set [1] (female, plasma), 185 ng·h/mL; in data set [1] (male, liver) it was 26,044 ng.h/mL; in data set [1] (male, plasma), 180 ng·h/mL. Also, the AUClast is 23,384 ng.h/mL in data set [1] (female, liver); 169 ng·h/mL in data set [1] (female, plasma); 25,969 ng.h/mL in data set [1] (male, liver); 156 ng·h/mL in data set [1] (male, plasma). Further, the Cmax in data set [1] (female, liver) turned out to be 1503 ng/mL; in data set [1] (female, plasma) it was 11.3 ng/mL; in data set [1] (male, liver), 1704 ng/mL; in data set [1] (male, plasma) it was 6.8 ng/mL. The time of peak concentration (Tmax) in data set [1] (female, liver) is 8.0 h; in data set [1] (female, plasma), 4.0 h; in data set [1] (male, liver), 1.0 h; in data set [1] (male, plasma), 4.0 h. Moreover, the “% survival through Day 28” value in the data set on blood-stage P. yoelii (TQ 0 + T111 20 mg/kg) was 0%; in the data set on blood-stage P. yoelii (TQ 0 + T111 30 mg/kg), 0%; in the data set on blood-stage P. yoelii (TQ 0 + T111 40 mg/kg), 25%; in the data set on blood-stage P. yoelii (TQ 0 + T111 50 mg/kg) it was 100%. Moreover, the “number of mice cured on Day 28” value in the data set with blood-stage P. yoelii (TQ 0 + T111 20 mg/kg) was 0/4; with blood-stage P. yoelii (TQ 0 + T111 30 mg/kg), 0/4; in the data set on blood-stage P. yoelii (TQ 0 + T111 40 mg/kg, 40 mg/kg), “One of four mice and 1/4”; with blood-stage P. yoelii (TQ 0 + T111 50 mg/kg, 50 mg/kg), “all of four mice and single-dose cure in all treated mice and 4/4”. Also, the “parasitemia burden on Day 5” value in the data set with blood-stage P. yoelii (TQ 0 + T111 20 mg/kg), in the data set with blood-stage P. yoelii (TQ 0 + T111 30 mg/kg), in the data set on blood-stage P. yoelii (TQ 0 + T111 40 mg/kg) and in the data set with blood-stage P. yoelii (TQ 0 + T111 50 mg/kg) was 0 throughout.

Broadly, the CC50 is the concentration giving 50% cytotoxicity. In the case of `O=C1C(O)=C([C@H]2CC[C@H](c3ccc(Cl)cc3)CC2)C(=O)c2ccccc21` [ATV, atovaquone], the 50% cytotoxic concentration (CC50) at 4 days in data set [2] is 3.96 µM.
